Assay results reported in US11919965B2, “Methods of treating multiple myeloma with bispecific anti-BCMA x anti-CD3 antibodies” (Regeneron Pharmaceuticals, Inc., priority 2019, dated 2024).

Experiments:
[1] = tested on: BCMA-expressing MOLP-8 multiple myeloma tumors; test: Xenogenic tumor model, MOLP-8 + human PBMC s.c. in NSG mice, dose response (Example 13); format: in vivo, mouse
Procedure: To determine the in vivo efficacy of anti-BCMA×anti-CD3 bispecific antibodies (Abs), a xenogenic tumor study was performed. Immunodeficient NOD.Cg-Prkdc^scidII2rg^tm1Wjl/SzJ (NSG) mice were subcutaneously implanted with a mixture of 5×10^6 BCMA-expressing MOLP-8 human multiple myeloma tumor cells and 1×10^6 human peripheral blood mononuclear cells (PBMC) isolated from a normal, healthy donor. […] The mice were administered these Abs twice per week for a total of seven doses, and tumor growth was assessed over 56 days. While the BCMA+ MOLP-8 tumors grew similarly in the vehicle- and CD3-binding control-treated mice, both BCMA×CD3 Abs that were tested prevented the growth of tumors in a dose-dependent manner in vivo.
(§1) Implantation and measurement of xenogenic tumors: NSG mice were subcutaneously implanted with a mixture of 5×10^6 BCMA-expressing MOLP-8 multiple myeloma cells and 1×10^6 PBMC derived from a normal, healthy donor. […] The mice were administered Abs twice per week for a total of seven doses. Tumor growth was measured by caliper twice per week for the duration of the experiment.
(§2) Calculation of xenogenic tumor growth and inhibition: In order to determine tumor volume by external caliper, the greatest longitudinal diameter (length in mm) and the greatest transverse diameter (width in mm) were determined. Tumor volumes based on caliper measurements were calculated by the formula: Volume (mm^3)=(length× width^2)/2.

[2] = tested on: BCMA-expressing NCI-H929 multiple myeloma tumors; test: Xenogenic tumor model, NCI-H929 + human PBMC s.c. in NSG mice, dose response, treatment from implantation (Example 11); format: in vivo, mouse
Procedure: To determine the in vivo efficacy of anti-BCMA×anti-CD3 bispecific antibodies (Abs), a xenogenic tumor study was performed. Immunodeficient NOD.Cg-Prkdc^ScidII2rg^tm1Wjl/SzJ (NSG) mice were subcutaneously implanted with a mixture of 10×10^6 BCMA-expressing NCI-H929 human multiple myeloma tumor cells and 0.5×10^6 human peripheral blood mononuclear cells (PBMC) isolated from a normal, healthy donor. […] The mice were administered these Abs twice per week for a total of seven doses, and tumor growth was assessed over 60 days. While BCMA+NCI-H929 tumors grew similarly in the vehicle- and CD3-binding control-treated mice, both anti-BCMA×anti-CD3 Abs that were tested prevented the growth of tumors in a dose-dependent manner in vivo.
as §1, with “10×10^6” for “5×10^6”, “NCI-H929” for “MOLP-8”, “0.5×10^6” for “1×10^6”, “with calipers” for “by caliper”
as §2

“REGN5459: anti-BCMA×anti-CD3 bispecific antibody: mAb21581 BCMA heavy chain, mAb7221G20 CD3 heavy chain and common light chain; SEQ ID NOs 126, 128, 129” was tested, and the “Average Tumor Size (mm3) ± SEM on Day 3” value ([1]; 0.04 mg/kg) was 11.7 ± 2.1 mm3, the “Average Tumor Size (mm3) ± SEM on Day 7” value ([1]; 0.04 mg/kg) was 37.0 ± 5.7 mm3 and the “Average Tumor Size (mm3) ± SEM on Day 10” value ([1]; 0.04 mg/kg) was 104 ± 23.0 mm3. The “Average Tumor Size (mm3) ± SEM on Day 14” value ([1]; 0.04 mg/kg) was 356.7 ± 84.6 mm3, the “Average Tumor Size (mm3) ± SEM on Day 17” value ([1]; 0.04 mg/kg) was 645.6 ± 140.9 mm3 and the “Average Tumor Size (mm3) ± SEM on Day 21” value ([1]; 0.04 mg/kg) was 1442.4 ± 310.7 mm3. For the same substance, the “Average Tumor Size (mm3) ± SEM on Day 23” value ([1]; 0.04 mg/kg) was 2124.4 ± 444.1 mm3, the “Average Tumor Size (mm3) ± SEM on Day 28” value ([1]; 0.04 mg/kg) was 1939.3 ± 840.6 mm3 and the “Average Tumor Size (mm3) ± SEM on Day 31” value ([1]; 0.04 mg/kg) was 2688.7 ± 1176.6 mm3. For the same substance, the “Average Tumor Size (mm3) ± SEM on Day 35” value ([1]; 0.04 mg/kg) was 612.1 ± 0 mm3, the “Average Tumor Size (mm3) ± SEM on Day 3” value ([1]; 0.4 mg/kg) was 14.0 ± 1.6 mm3 and the “Average Tumor Size (mm3) ± SEM on Day 7” value ([1]; 0.4 mg/kg) was 0 ± 0 mm3. For the same substance, the “Average Tumor Size (mm3) ± SEM on Day 10” value ([1]; 0.4 mg/kg) was 0 ± 0 mm3, the “Average Tumor Size (mm3) ± SEM on Day 14” value ([1]; 0.4 mg/kg) was 0 ± 0 mm3 and the “Average Tumor Size (mm3) ± SEM on Day 17” value ([1]; 0.4 mg/kg) was 0 ± 0 mm3. The “Average Tumor Size (mm3) ± SEM on Day 21” value ([1]; 0.4 mg/kg) was 0 ± 0 mm3, the “Average Tumor Size (mm3) ± SEM on Day 23” value ([1]; 0.4 mg/kg) was 0 ± 0 mm3 and the “Average Tumor Size (mm3) ± SEM on Day 28” value ([1]; 0.4 mg/kg) was 0 ± 0 mm3. The “Average Tumor Size (mm3) ± SEM on Day 31” value ([1]; 0.4 mg/kg) was 0 ± 0 mm3, the “Average Tumor Size (mm3) ± SEM on Day 35” value ([1]; 0.4 mg/kg) was 0 ± 0 mm3 and the “Average Tumor Size (mm3) ± SEM on Day 42” value ([1]; 0.4 mg/kg) was 0 ± 0 mm3. The “Average Tumor Size (mm3) ± SEM on Day 56” value ([1]; 0.4 mg/kg) was 0 ± 0 mm3, the “Average Tumor Size (mm3) ± SEM on Day 3” value ([1]; 4 mg/kg) was 12.9 ± 1.3 mm3 and the “Average Tumor Size (mm3) ± SEM on Day 7” value ([1]; 4 mg/kg) was 0.6 ± 0.6 mm3. For the same substance, the “Average Tumor Size (mm3) ± SEM on Day 10” value ([1]; 4 mg/kg) was 0 ± 0 mm3, the “Average Tumor Size (mm3) ± SEM on Day 14” value ([1]; 4 mg/kg) was 0 ± 0 mm3 and the “Average Tumor Size (mm3) ± SEM on Day 17” value ([1]; 4 mg/kg) was 0 ± 0 mm3. The “Average Tumor Size (mm3) ± SEM on Day 21” value ([1]; 4 mg/kg) was 0 ± 0 mm3, the “Average Tumor Size (mm3) ± SEM on Day 23” value ([1]; 4 mg/kg) was 0 ± 0 mm3 and the “Average Tumor Size (mm3) ± SEM on Day 28” value ([1]; 4 mg/kg) was 1.9 ± 1.9 mm3. The “Average Tumor Size (mm3) ± SEM on Day 31” value ([1]; 4 mg/kg) was 3.8 ± 3.0 mm3, the “Average Tumor Size (mm3) ± SEM on Day 35” value ([1]; 4 mg/kg) was 9.3 ± 7.5 mm3 and the “Average Tumor Size (mm3) ± SEM on Day 42” value ([1]; 4 mg/kg) was 12.8 ± 12.8 mm3. The “Average Tumor Size (mm3) ± SEM on Day 56” value ([1]; 4 mg/kg) was 17.2 ± 17.2 mm3, the “Average Tumor Size (mm3) ± SEM on Day 4” value ([2]; 0.04 mg/kg) was 33.0 ± 4.4 mm3 and the “Average Tumor Size (mm3) ± SEM on Day 7” value ([2]; 0.04 mg/kg) was 8.4 ± 4.0 mm3. The “Average Tumor Size (mm3) ± SEM on Day 12” value ([2]; 0.04 mg/kg) was 0 ± 0 mm3, the “Average Tumor Size (mm3) ± SEM on Day 19” value ([2]; 0.04 mg/kg) was 23.1± 23.1 mm3 and the “Average Tumor Size (mm3) ± SEM on Day 22” value ([2]; 0.04 mg/kg) was 69.5 ± 69.5 mm3. For the same substance, the “Average Tumor Size (mm3) ± SEM on Day 26” value ([2]; 0.04 mg/kg) was 156.7 ± 156.7 mm3, the “Average Tumor Size (mm3) ± SEM on Day 29” value ([2]; 0.04 mg/kg) was 226.6 ± 226.6 mm3 and the “Average Tumor Size (mm3) ± SEM on Day 4” value ([2]; 0.4 mg/kg) was 19.6 ± 4.4 mm3. The “Average Tumor Size (mm3) ± SEM on Day 12” value ([2]; 0.4 mg/kg) was 0 ± 0 mm3, the “Average Tumor Size (mm3) ± SEM on Day 15” value ([2]; 0.4 mg/kg) was 0 ± 0 mm3 and the “Average Tumor Size (mm3) ± SEM on Day 19” value ([2]; 0.4 mg/kg) was 0 ± 0 mm3. For the same substance, the “Average Tumor Size (mm3) ± SEM on Day 22” value ([2]; 0.4 mg/kg) was 0 ± 0 mm3, the “Average Tumor Size (mm3) ± SEM on Day 26” value ([2]; 0.4 mg/kg) was 0 ± 0 mm3 and the “Average Tumor Size (mm3) ± SEM on Day 29” value ([2]; 0.4 mg/kg) was 0 ± 0 mm3. For the same substance, the “Average Tumor Size (mm3) ± SEM on Day 34” value ([2]; 0.4 mg/kg) was 0 ± 0 mm3, the “Average Tumor Size (mm3) ± SEM on Day 39” value ([2]; 0.4 mg/kg) was 0 ± 0 mm3 and the “Average Tumor Size (mm3) ± SEM on Day 42” value ([2]; 0.4 mg/kg) was 0 ± 0 mm3. The “Average Tumor Size (mm3) ± SEM on Day 46” value ([2]; 0.4 mg/kg) was 0 ± 0 mm3, the “Average Tumor Size (mm3) ± SEM on Day 55” value ([2]; 0.4 mg/kg) was 0 ± 0 mm3 and the “Average Tumor Size (mm3) ± SEM on Day 60” value ([2]; 0.4 mg/kg) was 0 ± 0 mm3. The “Average Tumor Size (mm3) ± SEM on Day 4” value ([2]; 4 mg/kg) was 21.8 ± 3.4 mm3, the “Average Tumor Size (mm3) ± SEM on Day 7” value ([2]; 4 mg/kg) was 8.0 ± 4.3 mm3 and the “Average Tumor Size (mm3) ± SEM on Day 12” value ([2]; 4 mg/kg) was 1.7 ± 1.7 mm3. The “Average Tumor Size (mm3) ± SEM on Day 15” value ([2]; 4 mg/kg) was 0 ± 0 mm3, the “Average Tumor Size (mm3) ± SEM on Day 19” value ([2]; 4 mg/kg) was 0 ± 0 mm3 and the “Average Tumor Size (mm3) ± SEM on Day 22” value ([2]; 4 mg/kg) was 0 ± 0 mm3. The “Average Tumor Size (mm3) ± SEM on Day 26” value ([2]; 4 mg/kg) was 0 ± 0 mm3, the “Average Tumor Size (mm3) ± SEM on Day 29” value ([2]; 4 mg/kg) was 0 ± 0 mm3 and the “Average Tumor Size (mm3) ± SEM on Day 34” value ([2]; 4 mg/kg) was 0 ± 0 mm3. For the same substance, the “Average Tumor Size (mm3) ± SEM on Day 39” value ([2]; 4 mg/kg) was 0 ± 0 mm3, the “Average Tumor Size (mm3) ± SEM on Day 42” value ([2]; 4 mg/kg) was 0 ± 0 mm3 and the “Average Tumor Size (mm3) ± SEM on Day 46” value ([2]; 4 mg/kg) was 0 ± 0 mm3. The “Average Tumor Size (mm3) ± SEM on Day 55” value ([2]; 4 mg/kg) was 0 ± 0 mm3 and the “Average Tumor Size (mm3) ± SEM on Day 60” value ([2]; 4 mg/kg) was 0 ± 0 mm3.
